Here are results for ten molecules from ChEMBL document CHEMBL1681649, “Design, synthesis and biological evaluation of novel 4-hydroxybenzene acrylic acid derivatives” (Bioorg Med Chem Lett, 2011).

For series [1], the system named is Mus musculus. Put plainly: Antiinflammatory activity in xylene-induced Kunming mouse ear edema model assessed as suppression of ear swelling at 300 mg/kg, po. Type of series: functional.
The test system of series [2] is Mus musculus. Put plainly: Antiinflammatory activity in xylene-induced Kunming mouse ear edema model assessed as suppression of ear swelling at 150 mg/kg, po. Type of series: functional.
Series [3] has as its system Mus musculus. As to the kind of experiment: Cardiotoxicity in Kunming mouse assessed as pathological changes at 150 mg/kg, po after 12 days. Type of series: toxicity, organism-based. The settings on record: in vivo, 288 h. On the set-up: dose 150 mg/kg, route oral.
Series [4] relates to Mus musculus. As to the kind of experiment: Antiinflammatory activity in xylene-induced Kunming mouse ear edema model assessed as suppression of ear swelling at 75 mg/kg, po. Type of series: functional.
In series [5] the test system is Mus musculus. Put plainly: Cardiotoxicity in Kunming mouse assessed as pathological changes at 100 mg/kg, po after 12 days. On the set-up: dose 100 mg/kg, route oral. The conditions noted are these: in vivo, 288 h. It is filed as toxicity, organism-based.
Series [6] relates to Mus musculus. As to the kind of experiment: Antiinflammatory activity in xylene-induced Kunming mouse ear edema model assessed as suppression of ear swelling at 100 mg/kg, po. It is filed as functional.

SMILES strings stand for the structures.

As for `CCOC(=O)/C(=C/c1ccc(OC(C)=O)c(OC)c1)c1ccc(S(C)(=O)=O)cc1`, in the series with Mus musculus [1], the Activity is 24.11%.
Still for that read-out and setting: the same measure for `COc1cc(/C=C(/C(=O)O)c2ccc(S(C)(=O)=O)cc2)ccc1O`: 9.97%; for `CS(=O)(=O)c1ccc(/C(=C\c2ccccc2)C(=O)O)cc1`: 17.49%.
On the same count and under the same terms, the same measure for `CCOC(=O)/C(=C/c1ccc(O)c(OC)c1)c1ccc(S(C)(=O)=O)cc1`: 34.62%.
As to `COc1cc(/C=C(/C(=O)O)c2ccc(S(C)(=O)=O)cc2)ccc1OC(C)=O`, the Activity with Mus musculus [1] is reported as 45.29%; in the series on Mus musculus [2], 26.12%; with Mus musculus [3], “Non-toxic”; with Mus musculus [4], 12.38%.
As for `CCOC(=O)/C(=C/c1ccc(OC(C)=O)c(Br)c1)c1ccc(S(C)(=O)=O)cc1`, in the series on Mus musculus [4], the Activity amounted to 0%.
On to `COc1ccc(/C=C(/C(=O)O)c2ccc(S(C)(=O)=O)cc2)cc1OC`, for which the Activity in the series on Mus musculus [1] is 15.92%.
`COc1ccc2c(c1)c(CC(=O)O)c(C)n2C(=O)c1ccc(Cl)cc1` [INDOMETHACIN]: the Activity entry is “Non-toxic” with Mus musculus [5] and 37.03% in the series with Mus musculus [6].
`CC(=O)Oc1ccc(/C=C(/C(=O)O)c2ccc(S(C)(=O)=O)cc2)cc1`: the Activity in the series on Mus musculus [1] turned out to be 44.75%; in the series on Mus musculus [2] it was 32.87%; in the series on Mus musculus [4] it was 23.34%.
`COc1cc(/C=C(/C(=O)O)c2ccccc2)ccc1OC(C)=O`: in the series with Mus musculus [1], the Activity stood at 21.86%.
